Test results from patent US10457677B2 (priority 2015, dated 2019).
Read-outs that look alike come from different tables or passages of the source.

What was measured:
mTOR (human) = mTOR (human) (Homo sapiens (Human), UniProt P42345); test: mTOR (human) kinase assay, [γ-33P-ATP] filter assay; assay type: biochemical
Method: Furthermore, the effect, in particular inhibition, of other kinases and thus the selectivity of the compounds according to the invention can be determined with the aid of the following assay:
mTOR (human) was incubated with 50 mM HEPES pH 7.5, 1 mM EGTA, 0.01% Tween 20, 2 mg/ml of the substrate, 3 mM MnCl2 and [γ-^33P-ATP] (specific activity approximately 500 cpm/pmol, concentration as necessary). The reaction was initiated by addition of MgATP solution. After incubation at room temperature for 40 minutes, the reaction was stopped by addition of 3% phosphoric acid. 10 μl of the reaction solution were then transferred dropwise onto a P30 filtermat and washed three times for 5 min in 75 mM phosphoric acid and once in methanol, dried and evaluated by means of liquid scintillation counting.

PI3K (p120γ) (human) = PI3K (p120γ) (human) (Homo sapiens (Human), UniProt P48736); test: PI3K (p120γ) (human), non-radioactive assay (HTRF); assay type: biochemical; conditions: for IC50: read-out: IC50 (PI3Kgamma); for ratio IC50 (ATM) vs PI3Kgamma, selectivity with respect to PI3Kgamma: as printed:
Method: PI3K (p120γ) (Human), Non-radioactive Assay
(§1) PI3K (p120γ) (human) was incubated in an assay buffer comprising 10 μM phosphati-dylinositol 4,5-bisphosphate and MgATP (concentration as necessary). The reaction was initiated by addition of MgATP solution. After an incubation time of 30 min at room temperature, the reaction was stopped by addition of a solution consisting of EDTA and biotinylated phosphatidylinositol 3,4,5-trisphosphate. Finally, the detection buffer, consisting of a europium-labelled anti-GST monoclonal antibody, a GST-labelled GRP1 PH domain and streptavidin allophycocyanin, was added. The plate was read out via homogeneous time-resolved fluorescence (HTRF) and the corresponding signals were evaluated via the formula HTRF=10000×(Em665nm/Em620nm). • MgATP=magnesium 5′-O—[hydroxy({[(hydroxyphosphinato)oxy]phosphinato}oxy)phosphoryl]adenosine • MgCl2=magnesium dichloride • EGTA=ethylene glycol bis(aminoethyl ether) N,N,N′,N′-tetraacetic acid • Tween 20=polysorbate 20 Medicament/pharmaceutical Composition

PI3K p110δ/p85α (human) = PI3K p110δ/p85α (human) (Homo sapiens (Human), UniProt O00329); test: PI3K p110δ/p85α (human), non-radioactive assay (HTRF); assay type: biochemical; conditions: for IC50: read-out: IC50 (PI3Kdelta); for ratio IC50 (ATM) vs PI3Kdelta, selectivity with respect to PI3Kdelta: as printed:
Method: PI3K p110δ/p85α (Human), Non-radioactive Assay
as §1, with “p110δ/p85α” for “(p120γ)”, “HTRF=10000×(Em665nm/Em620nm).” for “HTRF=10000×(Em665nm/Em620nm). • MgATP=magnesium 5′-O—[hydroxy({[(hydroxyphosphinato)oxy]phosphinato}oxy)phosphoryl]adenosine • MgCl2=magnesium dichloride • EGTA=ethylene glycol bis(aminoethyl ether) N,N,N′,N′-tetraacetic acid • Tween 20=polysorbate 20 Medicament/pharmaceutical Composition”

PI3K p110α/p85α (human) = PI3K p110α/p85α (human) (Homo sapiens (Human), UniProt P42336); test: PI3K p110α/p85α (human), non-radioactive assay (HTRF); assay type: biochemical; conditions: for IC50: read-out: IC50 (PI3Kalpha); for ratio IC50 (ATM) vs PI3Kalpha, selectivity with respect to PI3Kalpha: as printed:
Method: PI3K p110α/p85α (Human), Non-radioactive Assay
(§2) PI3K p110α/p85α (human) was incubated in an assay buffer comprising 10 μM phosphati-dylinositol 4,5-bisphosphate and MgATP (concentration as necessary). The reaction was initiated by addition of MgATP solution. After incubation at room temperature for 40 minutes, the reaction was stopped by addition of a solution consisting of EDTA and biotinylated phosphatidylinositol 3,4,5-trisphosphate. Finally, the detection buffer, consisting of a europium-labelled anti-GST monoclonal antibody, a GST-labelled GRP1 PH domain and streptavidin allophycocyanin, was added. The plate was read out via homogeneous time-resolved fluorescence (HTRF) and the corresponding signals were evaluated via the formula HTRF=10000×(Em665nm/Em620nm).

[1] = test system: phosphorylation of CHK2 (phospho-Thr68) in HCT116 cells; test: Cellular pCHK2 assay: bleomycin-induced phosphorylation of CHK2 (phospho-Thr68), immunofluorescence high-content analysis; assay type: cell-based, human; conditions: Homo sapiens, HCT-116, 4 h, read-out: IC50 (pCHK2)
Text: For the identification of substances which inhibit the phosphorylation of the protein kinase CHK2 at the amino acid threonine 68, an immunofluorescence-based “high content” analysis assay was used in HCT116 cells.
In vitro cell-based immunofluorescence assay for the identification of inhibitors of bleomycin-induced phosphorylation of CHK2 (phospho-Thr68) in the human colon carcinoma cell line HCT116:
HCT116 cells are sown out in a defined cell density in 384-well plates in culture medium (DMEM high glucose, 2 mM GlutaMax, 1 mM Na pyruvate, 10% FCS) and incubated overnight at 37° C. and 10% of CO2. On the following day, the test substances are added in a defined concentration range (1 nM to 30 μM) in combination with 10 μM bleomycin, where the concentration of the solvent DMSO is kept constant at 0.5%. […] Parallel staining of DNA with propidium iodide enables determination of the cell count. The pCHK2 signal is detected using a high-content imager (Molecular Devices IMX Ultra) and automatic image analysis using the MetaXpress software belonging to the instrument. The number of cell nuclei which have a pCHK2 signal above a defined background is determined.

[2] = biological target: purified human recombinant ATM (ataxia telangiectasia mutated), full length (Homo sapiens (Human), UniProt Q13315); test: ATM kinase assay - determination of ATM inhibition (IC50 ATM), TR-FRET; assay type: biochemical
Summary of the method: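 Full-length enzyme, expressed in a mammalian cell line, pre-incubated 15 min with inhibitor in 25 mM HEPES pH 8.0, 10 mM Mg(CH3COO)2, 1 mM MnCl2, 0,1% BSA, 0,01% Brij 35, 5 mM DTT. Full-length cmyc-p53 (Sf21-expressed) and ATP then added, 30-35 min at 22° C. EDTA stop; p53 S15 phosphorylation read by TR-FRET antibodies.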

PI3K p110β/p85α (human) = PI3K p110β/p85α (human) (Homo sapiens (Human), UniProt P42338); test: PI3K p110β/p85α (human), non-radioactive assay (HTRF); assay type: biochemical; conditions: IC50 (ATM) at least 2000 times higher compared with IC50 (PI3Kbeta)
PI3K p110β/p85α (human), sequence (P42338 whole entry): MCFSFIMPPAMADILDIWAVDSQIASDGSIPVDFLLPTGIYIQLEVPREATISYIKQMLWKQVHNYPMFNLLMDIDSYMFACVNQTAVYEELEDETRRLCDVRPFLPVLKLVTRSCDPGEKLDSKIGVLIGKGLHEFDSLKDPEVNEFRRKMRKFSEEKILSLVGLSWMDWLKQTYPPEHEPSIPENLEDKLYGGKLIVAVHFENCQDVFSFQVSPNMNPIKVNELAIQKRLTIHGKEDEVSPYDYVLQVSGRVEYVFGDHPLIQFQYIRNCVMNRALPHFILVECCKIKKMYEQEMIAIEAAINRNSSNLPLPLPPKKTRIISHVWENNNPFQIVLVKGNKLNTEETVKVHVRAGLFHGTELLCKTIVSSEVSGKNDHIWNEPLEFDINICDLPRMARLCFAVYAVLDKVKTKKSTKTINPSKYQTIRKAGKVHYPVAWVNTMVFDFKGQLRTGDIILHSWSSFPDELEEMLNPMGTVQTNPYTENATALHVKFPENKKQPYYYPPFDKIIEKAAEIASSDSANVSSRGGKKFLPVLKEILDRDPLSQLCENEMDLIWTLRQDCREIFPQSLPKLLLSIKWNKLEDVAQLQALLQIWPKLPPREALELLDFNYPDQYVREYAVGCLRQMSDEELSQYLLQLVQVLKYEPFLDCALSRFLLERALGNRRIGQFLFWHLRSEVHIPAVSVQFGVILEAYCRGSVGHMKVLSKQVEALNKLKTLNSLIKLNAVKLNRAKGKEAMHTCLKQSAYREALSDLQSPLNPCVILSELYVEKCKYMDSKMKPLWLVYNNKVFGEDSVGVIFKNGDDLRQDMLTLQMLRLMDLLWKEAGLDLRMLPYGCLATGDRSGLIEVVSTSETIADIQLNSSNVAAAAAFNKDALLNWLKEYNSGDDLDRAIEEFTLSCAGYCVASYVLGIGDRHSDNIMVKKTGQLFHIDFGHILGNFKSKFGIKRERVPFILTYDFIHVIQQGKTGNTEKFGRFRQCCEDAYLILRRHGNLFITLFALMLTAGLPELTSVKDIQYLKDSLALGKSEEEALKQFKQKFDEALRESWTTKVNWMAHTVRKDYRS
PI3K p110β/p85α (human), sequence (P27986 whole entry partner): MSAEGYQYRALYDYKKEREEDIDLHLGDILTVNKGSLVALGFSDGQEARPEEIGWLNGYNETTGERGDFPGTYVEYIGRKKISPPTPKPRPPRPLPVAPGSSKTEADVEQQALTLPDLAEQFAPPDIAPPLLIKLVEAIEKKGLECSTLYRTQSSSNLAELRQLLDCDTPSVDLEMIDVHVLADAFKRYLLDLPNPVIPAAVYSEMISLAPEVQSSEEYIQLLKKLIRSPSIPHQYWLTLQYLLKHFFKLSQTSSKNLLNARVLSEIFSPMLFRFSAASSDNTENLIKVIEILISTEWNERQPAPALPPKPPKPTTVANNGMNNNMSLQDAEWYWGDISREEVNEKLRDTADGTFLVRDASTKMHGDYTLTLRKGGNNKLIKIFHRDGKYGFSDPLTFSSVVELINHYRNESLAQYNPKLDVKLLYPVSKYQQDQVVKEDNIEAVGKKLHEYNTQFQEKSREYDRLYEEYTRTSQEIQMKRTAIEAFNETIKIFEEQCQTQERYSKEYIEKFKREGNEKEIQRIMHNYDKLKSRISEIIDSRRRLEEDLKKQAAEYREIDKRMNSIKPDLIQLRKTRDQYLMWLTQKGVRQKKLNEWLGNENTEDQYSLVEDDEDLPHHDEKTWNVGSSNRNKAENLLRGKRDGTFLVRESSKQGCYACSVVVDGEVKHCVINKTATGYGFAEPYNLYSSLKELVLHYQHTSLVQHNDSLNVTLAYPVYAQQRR
Method: PI3K p110β/p85α (Human), Non-radioactive Assay
as §2, with “p110β/p85α” for “p110α/p85α”, “After an” for “After”, “incubation time of 30 min” for “incubation”, “temperature,” for “temperature for 40 minutes,”

PI3K (p120γ) (human), sequence (P48736 whole entry): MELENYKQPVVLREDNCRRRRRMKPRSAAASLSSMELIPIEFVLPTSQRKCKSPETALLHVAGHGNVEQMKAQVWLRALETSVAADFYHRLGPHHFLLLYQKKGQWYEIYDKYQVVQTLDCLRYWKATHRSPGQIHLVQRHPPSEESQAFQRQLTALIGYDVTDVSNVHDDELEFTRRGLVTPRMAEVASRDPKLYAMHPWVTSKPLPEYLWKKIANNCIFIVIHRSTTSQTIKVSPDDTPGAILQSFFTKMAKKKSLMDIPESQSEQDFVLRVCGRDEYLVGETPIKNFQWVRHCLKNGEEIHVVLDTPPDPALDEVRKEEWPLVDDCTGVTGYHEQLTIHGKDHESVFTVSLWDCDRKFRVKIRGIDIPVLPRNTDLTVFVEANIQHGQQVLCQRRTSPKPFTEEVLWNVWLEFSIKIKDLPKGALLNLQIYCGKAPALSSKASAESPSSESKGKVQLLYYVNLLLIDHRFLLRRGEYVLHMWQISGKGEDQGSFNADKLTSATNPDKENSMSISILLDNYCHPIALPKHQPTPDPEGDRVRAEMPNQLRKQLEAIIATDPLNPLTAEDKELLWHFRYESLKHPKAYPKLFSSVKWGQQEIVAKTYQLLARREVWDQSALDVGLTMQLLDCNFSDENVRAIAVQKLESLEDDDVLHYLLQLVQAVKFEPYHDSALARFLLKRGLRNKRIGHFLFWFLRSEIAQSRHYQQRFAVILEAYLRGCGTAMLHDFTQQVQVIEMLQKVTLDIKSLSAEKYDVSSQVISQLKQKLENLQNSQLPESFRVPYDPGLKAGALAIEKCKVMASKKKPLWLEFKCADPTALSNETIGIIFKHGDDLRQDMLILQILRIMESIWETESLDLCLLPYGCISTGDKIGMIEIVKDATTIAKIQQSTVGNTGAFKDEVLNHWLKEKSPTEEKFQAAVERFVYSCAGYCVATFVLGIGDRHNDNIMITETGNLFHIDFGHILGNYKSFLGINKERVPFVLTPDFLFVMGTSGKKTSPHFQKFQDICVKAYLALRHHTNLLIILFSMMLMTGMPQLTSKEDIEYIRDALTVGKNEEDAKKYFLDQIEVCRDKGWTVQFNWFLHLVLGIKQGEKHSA
PI3K p110δ/p85α (human), sequence (O00329 whole entry): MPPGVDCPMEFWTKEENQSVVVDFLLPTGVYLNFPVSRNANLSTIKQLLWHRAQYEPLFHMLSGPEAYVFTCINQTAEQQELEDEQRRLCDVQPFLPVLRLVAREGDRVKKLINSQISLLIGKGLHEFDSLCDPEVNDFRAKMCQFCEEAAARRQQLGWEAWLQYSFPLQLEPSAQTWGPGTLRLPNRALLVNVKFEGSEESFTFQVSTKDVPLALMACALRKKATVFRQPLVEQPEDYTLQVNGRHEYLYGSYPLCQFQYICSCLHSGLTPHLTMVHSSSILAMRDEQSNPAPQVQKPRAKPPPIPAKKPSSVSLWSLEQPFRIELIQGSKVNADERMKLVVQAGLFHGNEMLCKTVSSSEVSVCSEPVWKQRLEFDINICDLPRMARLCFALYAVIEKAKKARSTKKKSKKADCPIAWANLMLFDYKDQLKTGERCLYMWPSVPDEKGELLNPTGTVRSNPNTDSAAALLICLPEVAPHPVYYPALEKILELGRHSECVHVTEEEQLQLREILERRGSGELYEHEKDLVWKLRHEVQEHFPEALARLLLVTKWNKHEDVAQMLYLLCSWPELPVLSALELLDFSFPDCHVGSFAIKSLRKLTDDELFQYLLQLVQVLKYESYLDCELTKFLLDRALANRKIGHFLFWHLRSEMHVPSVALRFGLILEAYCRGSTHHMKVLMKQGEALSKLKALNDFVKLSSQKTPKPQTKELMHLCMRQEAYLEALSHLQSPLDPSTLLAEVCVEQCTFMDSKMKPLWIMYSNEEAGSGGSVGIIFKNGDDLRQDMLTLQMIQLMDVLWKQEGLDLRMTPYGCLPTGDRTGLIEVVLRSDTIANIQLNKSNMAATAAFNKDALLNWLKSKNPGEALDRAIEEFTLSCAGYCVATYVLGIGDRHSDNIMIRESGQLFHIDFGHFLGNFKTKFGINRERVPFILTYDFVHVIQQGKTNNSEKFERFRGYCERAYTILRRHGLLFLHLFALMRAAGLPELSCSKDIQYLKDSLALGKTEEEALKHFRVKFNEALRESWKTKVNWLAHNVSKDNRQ
PI3K p110δ/p85α (human), sequence (P27986 whole entry partner): as the sequence (P27986 whole entry partner) above
PI3K p110α/p85α (human), sequence (P42336 whole entry): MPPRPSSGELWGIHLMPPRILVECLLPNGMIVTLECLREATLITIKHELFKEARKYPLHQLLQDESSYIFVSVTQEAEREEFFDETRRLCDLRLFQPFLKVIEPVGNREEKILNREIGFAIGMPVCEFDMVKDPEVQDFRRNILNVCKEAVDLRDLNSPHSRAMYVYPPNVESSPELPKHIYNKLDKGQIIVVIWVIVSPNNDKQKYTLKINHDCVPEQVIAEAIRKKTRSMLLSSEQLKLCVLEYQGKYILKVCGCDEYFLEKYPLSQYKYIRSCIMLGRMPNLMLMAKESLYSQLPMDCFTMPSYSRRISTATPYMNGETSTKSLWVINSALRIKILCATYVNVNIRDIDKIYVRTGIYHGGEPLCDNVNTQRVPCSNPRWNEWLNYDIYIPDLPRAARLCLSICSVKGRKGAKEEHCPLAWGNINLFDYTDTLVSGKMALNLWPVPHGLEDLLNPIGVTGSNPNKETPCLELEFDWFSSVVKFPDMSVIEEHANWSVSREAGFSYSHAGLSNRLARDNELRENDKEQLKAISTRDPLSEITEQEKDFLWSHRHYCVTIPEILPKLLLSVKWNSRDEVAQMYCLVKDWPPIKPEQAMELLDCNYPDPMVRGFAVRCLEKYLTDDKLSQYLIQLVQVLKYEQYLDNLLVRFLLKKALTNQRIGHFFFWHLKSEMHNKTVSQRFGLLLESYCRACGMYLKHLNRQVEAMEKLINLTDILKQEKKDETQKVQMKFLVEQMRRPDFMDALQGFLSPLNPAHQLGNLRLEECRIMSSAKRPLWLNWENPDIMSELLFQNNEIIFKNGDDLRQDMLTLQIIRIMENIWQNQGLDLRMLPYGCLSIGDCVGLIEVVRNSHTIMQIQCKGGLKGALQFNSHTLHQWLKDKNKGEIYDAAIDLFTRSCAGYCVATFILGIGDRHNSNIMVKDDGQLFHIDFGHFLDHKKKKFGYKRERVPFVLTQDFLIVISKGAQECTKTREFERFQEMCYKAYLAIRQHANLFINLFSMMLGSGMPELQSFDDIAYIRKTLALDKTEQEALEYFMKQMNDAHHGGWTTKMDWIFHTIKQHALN
PI3K p110α/p85α (human), sequence (P27986 whole entry partner): as the sequence (P27986 whole entry partner) above

Row | Compound | IC50 (mTOR (human)) | IC50 (PI3K (p120γ) (human)) | IC50 (PI3K p110δ/p85α (human)) | IC50 (PI3K p110α/p85α (human)) | IC50 [1] | IC50 [2] | IC50 ([2]; 10 μM ATP, substrate p53) | fold selectivity for ATM over PI3Kbeta (IC50 PI3Kbeta / IC50 ATM) (PI3K p110β/p85α (human)) | ratio IC50 (ATM) vs PI3Kgamma, selectivity with respect to PI3Kgamma (PI3K (p120γ) (human)) | ratio IC50 (ATM) vs PI3Kdelta, selectivity with respect to PI3Kdelta (PI3K p110δ/p85α (human)) | ratio IC50 (ATM) vs PI3Kalpha, selectivity with respect to PI3Kalpha (PI3K p110α/p85α (human))
1 | COc1cc2ncc3c(c2cc1-c1cn[nH]c1)n(-c1ccncc1OC)c(=O)n3C [Compound Example 32, 7-Methoxy-1-(3-methoxy-pyridin-4-yl)-3-methyl-8-(1H-pyrazol-4-yl)-1,3-dihydroimidazo[4,5-c]-quinolin-2-one] | > 10 µM | > 30 µM | > 30 µM | > 30 µM | < 200 nM | < 10 nM | < 10 nM |  |  |  | 
2 | CCc1cncc(C)c1-n1c(=O)n(C)c2cnc3cc(OC)c(-c4cnn(C)c4)cc3c21 [Compound Example 54, 1-(3-Ethyl-5-methylpyridin-4-yl)-7-methoxy-3-methyl-8-(1-methyl-1H-pyrazol-4-yl)-1,3-dihydroimidazo[4,5-c]-quinolin-2-one] | > 30 µM | > 30 µM | > 30 µM | > 30 µM | 200 to 1000 nM | < 10 nM | < 10 nM |  |  |  | 
3 | COc1ccc(-c2cc3c(cc2OC)ncc2c3n(-c3cn(C)nc3F)c(=O)n2C)cn1 [compound 159, 1-(3-Fluoro-1-methyl-1H-pyrazol-4-yl)-7-methoxy-8-(6-methoxypyridin-3-yl)-3-methyl-1,3-dihydroimidazo-[4,5-c]quinolin-2-one] |  |  |  |  | 1000 to 2000 nM |  | < 10 nM | at least 2000 times |  |  | 
4 | COc1cc2ncc3c(c2cc1-c1c[nH]nc1C)n(-c1ncc(F)cc1F)c(=O)n3C [compound 117, 1-(3,5-Difluoropyridin-2-yl)-7-methoxy-3-methyl-8-(3-methyl-1H-pyrazol-4-yl)-1,3-dihydroimidazo[4,5-c]-quinolin-2-one] |  |  |  |  | 200 to 1000 nM |  | < 10 nM |  | at least 2000 times | at least 2000 times | at least 2000 times
5 | CCn1cc(-c2cc3c(cc2OC)ncc2c3n(-c3c(F)cncc3F)c(=O)n2C)cn1 [Compound Example 26, 1-(3,5-Difluoropyridin-4-yl)-8-(1-ethyl-1H-pyrazol-4-yl)-7-methoxy-3-methyl-1,3-dihydroimidazo[4,5-c] quinolin-2-one] | > 30 µM | > 30 µM | > 30 µM | > 30 µM | < 200 nM | < 1 nM | < 1 nM |  |  |  | 
6 | COc1cc2ncc3c(c2cc1-c1cn[nH]c1)n(-c1ccncc1C)c(=O)n3C [Compound Example 19, 7-Methoxy-3-methyl-1-(3-methylpyridin-4-yl)-8-(1H-pyrazol-4-yl)-1,3-dihydro-imidazo[4,5-c]quinolin-2-one] | > 5 µM | > 30 µM | > 30 µM | > 30 µM | < 200 nM | < 10 nM | < 10 nM |  |  |  | 
7 | COc1cc2ncc3c(c2cc1-c1cnn(C)c1)n(-c1c(F)cncc1F)c(=O)n3C [Compound Example 22, 1-(3,5-Difluoropyridin-4-yl)-7-methoxy-3-methyl-8-(1-methyl-1H-pyrazol-4-yl)-1,3-dihydroimidazo[4,5-c] quinolin-2-one] | > 30 µM | > 30 µM | > 30 µM | > 30 µM | < 200 nM | < 1 nM | < 1 nM |  |  |  | 
8 | CCc1cncc(C)c1-n1c(=O)n(C)c2cnc3cc(OC)c(-c4cnn(CC)c4)cc3c21 [compound 61, 1-(3-Ethyl-5-methylpyridin-4-yl)-8-(1-ethyl-1H-pyrazol-4-yl)-7-methoxy-3-methyl-1,3-dihydroimidazo[4,5-c] quinolin-2-one] | > 30 µM |  | > 30 µM | > 30 µM | 1000 to 2000 nM | < 10 nM | < 10 nM |  |  |  | 
9 | COc1cnc(-n2c(=O)n(C)c3cnc4cc(OC)c(-c5c[nH]nc5C)cc4c32)c(F)c1 [compound 122, 1-(3-Fluoro-5-methoxy-pyridin-2-yl)-7-methoxy-3-methyl-8-(3-methyl-1H-pyrazol-4-yl)-1,3-dihydro-imidazo[4,5-c] quinolin-2-one] |  |  |  |  | < 200 nM |  | < 1 nM |  | at least 2000 times | at least 2000 times | at least 2000 times
10 | COc1cc2ncc3c(c2cc1-c1cnn(C)c1)n(-c1cc2[nH]ccc2cn1)c(=O)n3C [compound 120, 7-Methoxy-3-methyl-8-(1-methyl-1H-pyrazol-4-yl)-1-(1H-pyrrolo[3,2-c]pyridin-6-yl)-1,3-dihydroimidazo-[4,5-c]quinolin-2-one] |  |  |  |  | 200 to 1000 nM |  | < 1 nM |  | at least 2000 times | at least 2000 times | at least 2000 times
11 | COc1cc2ncc3c(c2cc1-c1cn(C)nc1C)n(-c1c(C)cncc1F)c(=O)n3C [Compound Example 39, 8-(1,3-Dimethyl-1H-pyrazol-4-yl)-1-(3-fluoro-5-methyl-pyridin-4-yl)-7-methoxy-3-methyl-1,3-dihydroimidazo-[4,5-c]quinolin-2-one] | > 30 µM | > 30 µM | > 30 µM | > 30 µM | 200 to 1000 nM | < 1 nM | < 1 nM |  |  |  | 
